Experimental data: paper PMC5259791 (Scientific Reports, 2017)

Columns and labels:
PPARγ = biological target: T1, PPARγ (Homo sapiens, UniProt P37231); assay: SPR on immobilized PPARγ; type: binding
T1 sequence (P37231 195-477 isoform P37231-2 limits assumed): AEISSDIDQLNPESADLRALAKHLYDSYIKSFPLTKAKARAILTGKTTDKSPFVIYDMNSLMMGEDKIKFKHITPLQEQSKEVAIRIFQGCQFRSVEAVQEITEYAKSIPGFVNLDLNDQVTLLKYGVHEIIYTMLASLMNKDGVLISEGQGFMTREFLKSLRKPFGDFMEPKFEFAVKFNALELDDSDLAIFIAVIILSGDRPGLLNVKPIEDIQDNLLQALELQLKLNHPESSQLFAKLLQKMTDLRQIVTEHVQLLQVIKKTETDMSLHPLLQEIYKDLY
Experimental: ; SPR analysis was also performed using the immobilized PPARγ LBD to evaluate if this protein portion was involved in the interaction with 1; […]. Conversely, no affinity of the diterpene towards Hsp60 was observed (Fig. 2c).
To assess the potential of 1 to act as a PPARγ modulator, we investigated the structural and functional aspects of its interaction with this nuclear receptor. To define the structural features required by 1 for an efficient interaction with PPARγ, as a first step, we performed SPR analyses using some diterpenes displaying structural relationship with 1 (compounds 2–9, Fig. 1). […]. SPR analyses were carried out on a BIACORE 3000 instrument (GE-Healthcare). PPARα, PPARγ, PPARδ and HSP60 surfaces were prepared on research−grade CM5 sensor chips (GE Healthcare). Proteins (100 μg/ml in 10 mM CH3COONa, pH 5.0) were immobilized using a standard amine−coupling protocol, to obtain densities of 3–5 kRU. Testing compounds were dissolved in 100% DMSO to obtain 4 mM solutions, and then diluted in PBS containing variable amounts of DMSO, achieving a final DMSO concentration of 0.1%. […]. SPR experiments and data elaboration were carried out as reported elsewhere.

PPARγ1 C285A mutant = biological target: T2, PPARγ1 C285A mutant (Homo sapiens, UniProt P37231, C313A); assay: PPRE-luciferase transactivation in HEK293T cells co-transfected with PPARγ1 C285A mutant; type: cell-based; settings: C285A mutant versus wild type receptor, 24 h
T2 construct: expressed in transfected cells; host or cells: HEK293T (transient); vectors from Takuma Shiraki
T2 sequence (P37231 1-477 isoform P37231-2 C285A): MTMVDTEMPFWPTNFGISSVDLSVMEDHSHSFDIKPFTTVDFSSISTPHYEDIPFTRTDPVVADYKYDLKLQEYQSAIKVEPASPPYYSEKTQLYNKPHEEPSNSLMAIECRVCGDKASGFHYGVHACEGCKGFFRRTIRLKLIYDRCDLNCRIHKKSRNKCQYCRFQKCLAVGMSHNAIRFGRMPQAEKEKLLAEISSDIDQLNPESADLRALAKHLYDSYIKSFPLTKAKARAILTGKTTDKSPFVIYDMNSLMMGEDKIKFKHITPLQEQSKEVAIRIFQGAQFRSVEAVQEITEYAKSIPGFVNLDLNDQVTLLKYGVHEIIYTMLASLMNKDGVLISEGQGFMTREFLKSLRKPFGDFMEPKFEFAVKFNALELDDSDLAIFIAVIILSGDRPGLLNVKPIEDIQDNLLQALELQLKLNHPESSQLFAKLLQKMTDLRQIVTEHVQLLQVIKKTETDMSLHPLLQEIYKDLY
Description: (b) Human HEK293T cells were co-transfected with the PPRE-luciferase reporter gene and the wild-type PPARγ1 or its mutant version (C285A).
HEK293 cells that stably express an exogenous Flag-tagged PPARγ from a transfected PCDNA-3 vector carrying a complete PPARγ cDNA were used for transfection experiments. The PPRE-Luc plasmid contains a luciferase reporter gene under the transcriptional control of three copies of the PPRE (Peroxisome Proliferator Response Element) derived from Acyl-CoA oxidase gene fused upstream to the herpes simplex thymidine kinase (TK) promoter, as described. […] Transient transfection assays were carried out as described in ref. [44]. […] In this case, the experiments were carried out into basal HEK293T cells and the RSV-β-Gal plasmid was used as control for transfection efficiency. […] The wild type and mutant PPARγ containing expression vectors were kindly provided by Dott. Takuma Shiraki. At least three independent experiments were performed for each transfection carried out in duplicate. Luciferase activity was normalized to β-galactosidase activity and reported as fold-induction.

Hsp60 = biological target: T3, Hsp60 (Homo sapiens, UniProt P10809); assay: MS-based peptide mapping of Hsp60 incubated with 1; settings: trypsin digestion, LC-MS/MS
T3 construct: purchased Tebu-Bio
T3 sequence (P10809 27-573): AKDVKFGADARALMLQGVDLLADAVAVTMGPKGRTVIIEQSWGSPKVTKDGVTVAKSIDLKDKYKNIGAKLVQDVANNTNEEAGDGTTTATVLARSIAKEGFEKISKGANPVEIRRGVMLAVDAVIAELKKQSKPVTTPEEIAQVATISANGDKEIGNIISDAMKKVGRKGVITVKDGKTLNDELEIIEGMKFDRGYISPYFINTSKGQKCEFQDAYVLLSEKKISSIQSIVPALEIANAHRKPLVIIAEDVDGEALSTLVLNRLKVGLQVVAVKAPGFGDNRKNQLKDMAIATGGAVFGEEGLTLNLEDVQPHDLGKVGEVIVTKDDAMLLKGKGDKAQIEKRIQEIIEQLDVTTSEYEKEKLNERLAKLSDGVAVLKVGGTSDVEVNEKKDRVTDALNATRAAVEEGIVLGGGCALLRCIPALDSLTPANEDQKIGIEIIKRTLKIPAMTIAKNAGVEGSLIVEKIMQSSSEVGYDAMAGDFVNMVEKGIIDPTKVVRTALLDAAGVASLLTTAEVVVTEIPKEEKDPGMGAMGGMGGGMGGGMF
Experimental: PPARγ-LBD and Hsp60 were incubated with a 2:1 molar excess of 1 under stirring for 15 min in PBS at 37 °C. Eluted proteins were loaded on a mono-dimensional 12% SDS-PAGE, stained with Brilliant Blue G-Colloidal, reduced, and digested by trypsin. The resulting fragments were extracted and analyzed by LC-MS/MS using the same instrument and protocol described before. Peptide identification was performed by MS and MS/MS data using Mascot (Matrix Science) to interrogate the Swiss Prot non-redundant protein database.

HT-29 cells = assay: HT-29 cell growth (cell counting)
Experimental: Data are the mean ± SD of three independent experiments performed in duplicate giving similar results. Significance is indicated as *p ≤ 0.05, **p ≤ 0.01 and ***p ≤ 0.001. (b) HT29 cells were seeded in 24-well in order to reach the density of cells/cm^2 in standard conditions (10^5 cells). […] The experiments were performed in triplicate and the data expressed as mean ± SD. Significance is indicated as **p ≤ 0.01 and ***p ≤ 0.001.

## C=C1C(=O)C23CCC4C(C(=O)OC)CC(O)CC4(C)C2CCC1C3 (stereo not shown) [Compound 1, 15-ketoatractyligenin methyl ester]
PPARγ; SPR, compared with 1/PPARα complex
  dissociation of 1/PPARγ complex: required longer times and was incomplete
PPARγ; SPR, immobilized PPARγ
  Kd: 25.8 ± 5.5 nM
PPARγ; protein immobilized after 2 h incubation with 5-fold molar excess of 1
  interaction with PPARγ pre-incubated with 1: did not interact
PPARγ1 C285A mutant
  luciferase activity with C285A mutant: even lower luciferase activity
Hsp60
  covalent modification of Hsp60: no peptide covalently modified
HT-29 cells; 1, 5 and 10 μM for 24 and 48 h
  inhibition of cell growth: more pronounced dosage-dependent inhibition of cell growth than Rosiglitazone
HT-29 cells; GW9662 10 μM 6 h, then compound 10 μM for 24 and 48 h
  cell counts after GW9662 pre-treatment versus compound alone: increased cell counts
